The text below walks through data of US10954221B2, “GLP-1R agonists and uses thereof” (QILU REGOR THERAPEUTICS INC., priority 2019, dated 2021).

The term EC50 denotes the midpoint of the concentration-response curve.

The target in test [1] is T1, GLP1R (Homo sapiens, UniProt P43220). In words: β-Arrestin-mediated GLP1R internalization assay (PathHunter U2OS cells). Format: cell-based. The arrangement: host or cells: PathHunter engineered U2OS cells. The note with it: averaged Bmax where applicable, Percentage of Control GLP-1 (7-37), top 10 μM, 180 min. The source says:
A similar assay can also be used to assess the extent of signal attenuation due to GLP-1R internalization (the Internalization Assay). In this assay, activated GLP1R Internalization cells were engineered to co-express an untagged GLP1R, Enzyme Acceptor (EA) tagged β-Arrestin, and a ProLink™ (PK) tag localized to the endosomes. Activation of the GLP1R induces β-Arrestin recruitment, which leads to internalization of the Receptor/Arrestin-EA complex in PK-tagged endosomes. This forces complementation of the two β-galactosidase enzyme fragments (EA and PK) to form a functional enzyme that hydrolyzes substrate to generate a chemiluminescent signal.
Frozen cells were quickly thawed and 10 mL of cell plating medium (provided by the kit) was added to thawed cells. Cells were stored in a 37° C. incubator and kept for approximately 48 hours until ready for the assay.
Reference and test compounds were dissolved in 100% DMSO. […] 5 μL of this solution was added to 20 μL cell medium in assay plate for a final top concentration of 10 μM. Plates were incubated at 37° C. for 180 min.
Following 180 min incubation, detection reagents were made up by combining 1 part Galacton Star Substrate with 5 parts Emerald II™ Solution, and 19 parts of PathHunter Cell Assay Buffer, respectively. 12.5 μL detection reagent was added to each well. The plates were then incubated at room temperature for 60 min. Plates were then read on Envision for 0.1 sec/well.
EC50 determinations were made from agonist dose-response curves analyzed with a curve fitting program using a 4-parameter logistic dose response equation.
Target sequence in this assay (P43220 24-463): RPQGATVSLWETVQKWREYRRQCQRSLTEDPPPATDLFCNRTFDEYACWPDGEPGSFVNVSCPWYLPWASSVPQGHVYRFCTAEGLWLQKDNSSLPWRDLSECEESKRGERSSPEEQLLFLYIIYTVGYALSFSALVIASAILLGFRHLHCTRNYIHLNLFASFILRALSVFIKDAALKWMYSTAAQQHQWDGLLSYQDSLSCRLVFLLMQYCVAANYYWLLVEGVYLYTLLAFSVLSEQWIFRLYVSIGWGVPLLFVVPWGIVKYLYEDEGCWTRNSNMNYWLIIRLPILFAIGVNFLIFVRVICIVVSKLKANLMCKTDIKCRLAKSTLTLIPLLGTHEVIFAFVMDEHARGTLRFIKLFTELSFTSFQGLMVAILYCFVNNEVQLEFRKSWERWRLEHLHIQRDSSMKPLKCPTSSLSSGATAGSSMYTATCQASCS
Target sequence in this assay (P32121 whole entry partner, the tested form may be a part): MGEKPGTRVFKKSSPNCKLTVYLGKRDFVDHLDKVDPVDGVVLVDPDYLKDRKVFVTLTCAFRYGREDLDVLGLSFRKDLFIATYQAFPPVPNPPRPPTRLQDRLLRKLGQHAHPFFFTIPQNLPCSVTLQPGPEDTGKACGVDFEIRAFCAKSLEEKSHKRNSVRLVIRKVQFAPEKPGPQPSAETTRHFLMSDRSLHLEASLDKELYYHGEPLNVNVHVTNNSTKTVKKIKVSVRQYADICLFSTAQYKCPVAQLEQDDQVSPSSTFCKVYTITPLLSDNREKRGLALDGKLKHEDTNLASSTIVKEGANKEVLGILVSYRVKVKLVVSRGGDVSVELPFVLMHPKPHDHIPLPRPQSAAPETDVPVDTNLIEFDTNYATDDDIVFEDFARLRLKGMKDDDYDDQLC

For test [2], the target named is T1, GLP1R. Briefly: cAMP assay in CHO cells stably expressing hGLP-1R. The test is classed as cell-based. Details: expressed in transfected cells; host or cells: CHO cells stably transfected. The note with it: CHO cells stably expressing hGLP-1R (Table 2), read-out: CHO cAMP stable EC50. The method, then: GLP-1R-mediated agonist activity was determined with a cell-based functional assay utilizing an HTRF (Homogeneous Time-Resolved Fluorescence) cAMP detection kit (cAMP Dynamic 2 Assay Kit; CisBio cat #62AM4PEC) that measures cAMP levels in the cell. The method is a competitive immunoassay between native cAMP produced by the cells and exogenous cAMP labeled with the dye d2. The tracer binding is visualized by a mAb anti-cAMP labeled with Cryptate. The specific signal (i.e., energy transfer) is inversely proportional to the concentration of cAMP in either standard or experimental sample.
Following the 30 minute incubation, 5 μL of labeled d2 cAMP and 5 μL of anti-cAMP antibody (both diluted 1:20 in cell lysis buffer; as described in the manufacturer's assay protocol) were added to each well of the assay plate. […] Raw data were converted to nM cAMP by interpolation from a cAMP standard curve (as described in the manufacturer's assay protocol) and the percent effect was determined relative to a saturating concentration of the full agonist GLP-17-37 (10 nM) included on each plate. EC50 determinations were made from agonist dose-response curves analyzed with a curve fitting program using a 4-parameter logistic dose response equation. […]
Target sequence in this assay (P43220 24-463): as the sequence (P43220 24-463) above

Test [3] addresses T1, GLP1R. In words: GLP1R cAMP assay (HTRF), HEK293/GLP-1R/CRE/Luc, Clone 4. On the technique in general: cAMP levels reflect the balance of adenylyl cyclase and phosphodiesterase activity.
Target sequence in this assay (P43220 24-463): as above
Experimental: The human GLP-1R coding sequence (NCBI Reference Sequence NM_002062) was subcloned into pcDNA3.1+/Hygro vector (Invitrogen) and transfected into HEK293/CRE/Luc parental cell line. A cell line stably expressing the receptor was isolated.
Varying concentrations of each compound to be tested (in DMSO) were diluted in DMSO to obtain 200× compound working solution first and then 50 nl compounds were added to a white 384-well assay plate (Greiner 784075) with ECHO. The final DMSO concentration was 0.5%.
Cells were removed from cryopreservation, re-suspended in 5 mL of Dulbecco's Phosphate Buffered Saline (DPBS-Sigma Cat #D8537) and centrifuged at 900×g for 5 min at 22° C. The cell pellet was then re-suspended in 1 mL of assay buffer [DPBS with 500 μM IBMX (Sigma #15879) and 0.1% BSA (Sigma #A1933). IBMX and BSA were freshly added on the day of assay]. A 10 μL sample of the cell suspension was counted on an Invitrogen Countess II to determine cell viability and cell count per mL. The remaining cell suspension was then adjusted with assay buffer to deliver 1000 viable cells per well using a Matrix Combi Multidrop reagent dispenser. 10 μL cell suspensions were added to each well
of the assay plate which already contains compound. The plate was sealed and incubated at 37° C. with 5% CO2 for 30 minutes.
Following the 30 minute incubation, 5 μL of labeled d2 cAMP and 5 μL of anti-cAMP antibody (both diluted 1:20 in cell lysis buffer; as described in the manufacturer's assay protocol) were added to each well of the assay plate. The plates were then incubated at room temperature and after 60 minutes, changes in the HTRF signal were read with an Envision multi-label plate reader using excitation of 330 nm and emissions of 615 and 665 nm. Raw data were converted to nM cAMP by interpolation from a cAMP standard curve (as described in the manufacturer's assay protocol) and the percent effect was determined relative to a saturating concentration of the full agonist GLP-17-37 (10 nM) included on each plate. EC50 determinations were made from agonist dose-response curves analyzed with a curve fitting program using a 4-parameter logistic dose response equation.
The target of test [4] is T1, GLP1R. Details: Emax: dose or concentration left out as unconfirmed. The note with it: CHO-K1, […], read-out: β-arrestin recruitment Bmax (%). Background: Arrestin recruitment assays detect the binding of arrestin to an activated receptor.
Target sequence in this assay (P43220 24-463): as above
Target sequence in this assay (P32121 whole entry partner, the tested form may be a part): as the sequence (P32121 whole entry partner, the tested form may be a part) above

In the case of `O=C(O)c1ccc2nc(Cc3cc(F)c(-c4cccc(OCc5ccc(-n6ccnc6)cc5)n4)cc3F)n(C[C@@H]3CCO3)c2n1` [Compound 303, (S)-2-(4-(6-(4-(1H-imidazol-1-yl)benzyloxy)pyridin-2-yl)-2,5-difluorobenzyl)-3-(oxetan-2-ylmethyl)-3H-imidazo[4,5-b]pyridine-5-carboxylic acid], on GLP1R [1], the “β-arrestin internalization Bmax (POC)” value turned out to be 28.4 POC. Besides, the EC50 at GLP1R [2] and on GLP1R [3] was below 15 nM each time. Besides, the Emax at GLP1R [4] stood at 39.2 ± 4.75%.
As to `N#Cc1ccc(COc2nc(-c3ccc(Cc4nc5ccc(C(=O)O)c(F)c5n4C[C@@H]4CCO4)c(F)c3)ncc2F)c(F)c1` [Compound 312, (S)-2-(4-(4-((4-cyano-2-fluorobenzyl)oxy)-5-fluoropyrimidin-2-yl)-2-fluorobenzyl)-7-fluoro-1-(oxetan-2-ylmethyl)-1H-benzo[d]imidazole-6-carboxylic acid], the “β-arrestin internalization Bmax (POC)” value on GLP1R [1] stood at 45.2 POC. Besides, the EC50 on GLP1R [2] and on GLP1R [3] was below 15 nM in each case. Besides, the Emax on GLP1R [4] came out at 33.4 ± 2.13%.
As to `N#Cc1ccc(COc2cccc(-c3cc(F)c(Cc4nc5ccc(C(=O)O)nc5n4C[C@@H]4CCO4)cc3F)n2)nc1` [Compound 279, (S)-2-(4-(6-((5-cyanopyridin-2-yl)methoxy)pyridin-2-yl)-2,5-difluorobenzyl)-3-(oxetan-2-ylmethyl)-3H-imidazo[4,5-b]pyridine-5-carboxylic acid], the EC50 at GLP1R [2] and on GLP1R [3] was below 15 nM each time.
As to `N#Cc1ccc(COc2cccc(-c3cc(F)c(Cc4nc5ccc(C(=O)O)nc5n4C[C@@H]4CCO4)cc3F)n2)c(F)c1` [Compound 292, (S)-2-(4-(6-((4-cyano-2-fluorobenzyl)oxy)pyridin-2-yl)-2,5-difluorobenzyl)-3-(oxetan-2-ylmethyl)-3H-imidazo[4,5-b]pyridine-5-carboxylic acid], on GLP1R [1], the “β-arrestin internalization Bmax (POC)” value is on record as 29.6 POC. Also, the EC50 at GLP1R [2] and at GLP1R [3] was below 15 nM throughout. Further, the Emax at GLP1R [4] was determined as 42.2 ± 2.68%.
For `N#Cc1ccc(COc2nc(-c3cc(F)c(Cc4nc5ccc(C(=O)O)nc5n4C[C@@H]4CCO4)cc3F)ncc2F)nc1` [Compound 280, (S)-2-(4-(4-((5-cyanopyridin-2-yl)methoxy)-5-fluoropyrimidin-2-yl)-2,5-difluorobenzyl)-3-(oxetan-2-ylmethyl)-3H-imidazo[4,5-b]pyridine-5-carboxylic acid], the EC50 at GLP1R [2] is 15 to 150 nM; on GLP1R [3], below 15 nM.
Take `N#Cc1ccc(COc2nc(-c3ccc(Cc4nc5ccc(C(=O)O)nc5n4C[C@@H]4CCO4)c(F)c3)ncc2F)c(F)c1` [Compound 263, (S)-2-(4-(4-(4-cyano-2-fluorobenzyloxy)-5-fluoropyrimidin-2-yl)-2-fluorobenzyl)-3-(oxetan-2-ylmethyl)-3H-imidazo[4,5-b]pyridine-5-carboxylic acid]: the EC50 on GLP1R [2] and at GLP1R [3] was below 15 nM each time. Moreover, at GLP1R [4], the Emax amounted to 18.9%.
For the compound `O=C(O)c1ccc2nc(Cc3cc(F)c(-c4ncc(F)c(OCc5ncc(Cl)cc5F)n4)cc3F)n(C[C@@H]3CCO3)c2c1` [Compound 272, (S)-2-(4-(4-((5-chloro-3-fluoropyridin-2-yl)methoxy)-5-fluoropyrimidin-2-yl)-2,5-difluorobenzyl)-1-(oxetan-2-ylmethyl)-1H-benzo[d]imidazole-6-carboxylic acid], the EC50 at GLP1R [2] was 15 to 150 nM; on GLP1R [3], below 15 nM.
On to `O=C(O)c1ccc2nc(Cc3ccc(-c4ncc(F)c(OCc5ncc(Cl)cc5F)n4)cc3F)n(C[C@@H]3CCO3)c2n1` [Compound 294, (S)-2-(4-(4-((5-chloro-3-fluoropyridin-2-yl)methoxy)-5-fluoropyrimidin-2-yl)-2-fluorobenzyl)-3-(oxetan-2-ylmethyl)-3H-imidazo[4,5-b]pyridine-5-carboxylic acid], for which the EC50 is 15 to 150 nM on GLP1R [2] and below 15 nM on GLP1R [3].
On to `N#Cc1ccc(COc2nc(-c3ccc(Cc4nc5ccc(C(=O)O)cc5n4C[C@@H]4CCO4)c(F)c3)ncc2F)c(F)c1` [Compound 266, (S)-2-(4-(4-((4-cyano-2-fluorobenzyl)oxy)-5-fluoropyrimidin-2-yl)-2-fluorobenzyl)-1-(oxetan-2-ylmethyl)-1H-benzo[d]imidazole-6-carboxylic acid], for which the “β-arrestin internalization Bmax (POC)” value at GLP1R [1] turned out to be 19.9 ± 0.122 POC. Moreover, the EC50 on GLP1R [2] and at GLP1R [3] was below 15 nM in each case. In addition, at GLP1R [4], the Emax was 26.7 ± 4.76%.
In the case of `N#Cc1ccc(COc2cccc(-c3ccc(Cc4nc5ccc(C(=O)O)c(F)c5n4C[C@@H]4CCO4)c(F)c3)n2)c(F)c1` [Compound 310, (S)-2-(4-(6-((4-cyano-2-fluorobenzyl)oxy)pyridin-2-yl)-2-fluorobenzyl)-7-fluoro-1-(oxetan-2-ylmethyl)-1H-benzo[d]imidazole-6-carboxylic acid], the EC50 at GLP1R [2] and on GLP1R [3] was below 15 nM in each case. Besides, the Emax at GLP1R [4] stood at 37.8%.
As for `O=C(O)c1ccc2nc(Cc3cc(F)c(-c4ncc(F)c(OCc5ccc(Cl)cn5)n4)cc3F)n(C[C@@H]3CCO3)c2n1` [Compound 300, (S)-2-(4-(4-((5-chloropyridin-2-yl)methoxy)-5-fluoropyrimidin-2-yl)-2,5-difluorobenzyl)-3-(oxetan-2-ylmethyl)-3H-imidazo[4,5-b]pyridine-5-carboxylic acid], the EC50 at GLP1R [2] is 15 to 150 nM; at GLP1R [3], below 15 nM.
`N#Cc1cnc(COc2cccc(-c3cc(F)c(Cc4nc5ccc(C(=O)O)nc5n4C[C@@H]4CCO4)cc3F)n2)c(F)c1` [Compound 278, (S)-2-(4-(6-((5-cyano-3-fluoropyridin-2-yl)methoxy)pyridin-2-yl)-2,5-difluorobenzyl)-3-(oxetan-2-ylmethyl)-3H-imidazo[4,5-b]pyridine-5-carboxylic acid]: the “β-arrestin internalization Bmax (POC)” value on GLP1R [1] is listed as 36.5 POC. Moreover, the concentration for a half-maximal effect (EC50) on GLP1R [2] and at GLP1R [3] was below 15 nM each time. In addition, at GLP1R [4], the Emax worked out at 36.2 ± 5.56%.
For `N#Cc1ccc(COc2cccc(-c3ccn(Cc4nc5ccc(C(=O)O)c(F)c5n4C[C@@H]4CCO4)c(=O)c3)n2)c(F)c1` [Compound 322, (S)-2-((6-((4-cyano-2-fluorobenzyl)oxy)-2′-oxo-[2,4′-bipyridin]-1′(2′H)-yl)methyl)-7-fluoro-1-(oxetan-2-ylmethyl)-1H-benzo[d]imidazole-6-carboxylic acid], the EC50 is 15 to 150 nM on GLP1R [2] and below 15 nM at GLP1R [3].
As to `O=C(O)c1ccc2nc(Cc3ccc(-c4nccc(OCc5ccc(Cl)cc5F)n4)cc3F)n(C[C@@H]3CCO3)c2c1F` [Compound 311, (S)-2-(4-(4-((4-chloro-2-fluorobenzyl)oxy)pyrimidin-2-yl)-2-fluorobenzyl)-7-fluoro-1-(oxetan-2-ylmethyl)-1H-benzo[d]imidazole-6-carboxylic acid], the “β-arrestin internalization Bmax (POC)” value on GLP1R [1] is 26.7 ± 4.53 POC. Besides, the EC50 at GLP1R [2] and at GLP1R [3] was below 15 nM in each case. For the same compound, on GLP1R [4], the Emax came out at 38.8 ± 7.09%.
Take `N#Cc1cnc(COc2nc(-c3ccc(Cc4nc5ccc(C(=O)O)nc5n4C[C@@H]4CCO4)c(F)c3)ncc2F)c(F)c1` [Compound 301, (S)-2-(4-(4-((5-cyano-3-fluoropyridin-2-yl)methoxy)-5-fluoropyrimidin-2-yl)-2-fluorobenzyl)-3-(oxetan-2-ylmethyl)-3H-imidazo[4,5-b]pyridine-5-carboxylic acid]: the EC50 on GLP1R [2] was 15 to 150 nM; on GLP1R [3] it was below 15 nM.
The corresponding values for `O=C(O)c1ccc2nn(Cc3ccc(-c4cccc(OCc5ccc(Cl)cc5F)n4)cc3F)c(CC3CCO3)c2c1` (stereo not shown) [Compound 326, 2-(4-(6-(4-chloro-2-fluorobenzyloxy)pyridin-2-yl)-2-fluorobenzyl)-3-(oxetan-2-ylmethyl)-2H-indazole-S-carboxylic acid] are above 1000 nM and 15 to 150 nM.
